From PubChem BioAssay (NCI)
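Briefly, cells in 96-well plates were exposed to five compound concentrations for 48 h, and endpoints were estimated by linear interpolation. Abbreviation: GI50, concentration required for 50% inhibition of growth. TGI marks complete inhibition of growth.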

What was measured:
Experiment in all cases: growth of human tumour cells (NCI), 48 h
NCI-H226 lung = tested on: NCI-H226 lung
NCI-H460 lung = tested on: NCI-H460 lung
NCI-H522 lung = tested on: NCI-H522 lung
NCI/ADR-RES ovarian = tested on: NCI/ADR-RES ovarian
OVCAR-3 ovarian = tested on: OVCAR-3 ovarian
OVCAR-4 ovarian = tested on: OVCAR-4 ovarian
OVCAR-5 ovarian = tested on: OVCAR-5 ovarian
OVCAR-8 ovarian = tested on: OVCAR-8 ovarian
PC-3 prostate = tested on: PC-3 prostate
RPMI-8226 leukemia = tested on: RPMI-8226 leukemia
RXF 393 renal = tested on: RXF 393 renal
SF-268 CNS = tested on: SF-268 CNS
SF-295 CNS = tested on: SF-295 CNS
SF-539 CNS = tested on: SF-539 CNS
SK-MEL-2 melanoma = tested on: SK-MEL-2 melanoma
SK-MEL-28 melanoma = tested on: SK-MEL-28 melanoma
SK-MEL-5 melanoma = tested on: SK-MEL-5 melanoma
SK-OV-3 ovarian = tested on: SK-OV-3 ovarian
SN12C renal = tested on: SN12C renal
SNB-19 CNS = tested on: SNB-19 CNS
SNB-75 CNS = tested on: SNB-75 CNS
SR leukemia = tested on: SR leukemia
SW-620 colon = tested on: SW-620 colon
T-47D breast = tested on: T-47D breast
TK-10 renal = tested on: TK-10 renal
U251 CNS = tested on: U251 CNS
UACC-257 melanoma = tested on: UACC-257 melanoma
UACC-62 melanoma = tested on: UACC-62 melanoma
UO-31 renal = tested on: UO-31 renal

Compound: Cc1cc2nc3c4cc(Cl)ccc4n(CC(=S)NCCN(C)C)c3nc2cc1C
- TGI (NCI-H226 lung): 24.9 µM
- GI50 (NCI-H460 lung): 1.81 µM
- TGI (NCI-H460 lung): 3.35 µM
- GI50 (NCI-H522 lung): 1.72 µM
- TGI (NCI-H522 lung): 3.47 µM
- GI50 (NCI/ADR-RES ovarian): 1.87 µM
- TGI (NCI/ADR-RES ovarian): 3.7 µM
- GI50 (OVCAR-3 ovarian): 2.05 µM
- TGI (OVCAR-3 ovarian): 4.67 µM
- GI50 (OVCAR-4 ovarian): 2.81 µM
- TGI (OVCAR-4 ovarian): 10.2 µM
- GI50 (OVCAR-5 ovarian): 4.87 µM
- TGI (OVCAR-5 ovarian): 17.6 µM
- GI50 (OVCAR-8 ovarian): 1.75 µM
- TGI (OVCAR-8 ovarian): 3.39 µM
- GI50 (PC-3 prostate): 1.83 µM
- TGI (PC-3 prostate): 4.84 µM
- GI50 (RPMI-8226 leukemia): 2.75 µM
- TGI (RPMI-8226 leukemia): 7.49 µM
- GI50 (RXF 393 renal): 3.56 µM
- TGI (RXF 393 renal): 14.4 µM
- GI50 (SF-268 CNS): 5.56 µM
- TGI (SF-268 CNS): 21.1 µM
- GI50 (SF-295 CNS): 5.56 µM
- TGI (SF-295 CNS): 18.2 µM
- GI50 (SF-539 CNS): 3.33 µM
- TGI (SF-539 CNS): 12.2 µM
- GI50 (SK-MEL-2 melanoma): 14.2 µM
- TGI (SK-MEL-2 melanoma): 27.8 µM
- GI50 (SK-MEL-28 melanoma): 1.81 µM
- TGI (SK-MEL-28 melanoma): 3.43 µM
- GI50 (SK-MEL-5 melanoma): 4.09 µM
- TGI (SK-MEL-5 melanoma): 14 µM
- GI50 (SK-OV-3 ovarian): 11.8 µM
- TGI (SK-OV-3 ovarian): 24.1 µM
- GI50 (SN12C renal): 2.07 µM
- TGI (SN12C renal): 4.97 µM
- GI50 (SNB-19 CNS): 5.87 µM
- TGI (SNB-19 CNS): 19.9 µM
- GI50 (SNB-75 CNS): 11.2 µM
- TGI (SNB-75 CNS): 24.7 µM
- GI50 (SR leukemia): 2.46 µM
- TGI (SR leukemia): 6.23 µM
- GI50 (SW-620 colon): 1.68 µM
- TGI (SW-620 colon): 3.15 µM
- GI50 (T-47D breast): 5.11 µM
- TGI (T-47D breast): 20.2 µM
- GI50 (TK-10 renal): 11.4 µM
- TGI (TK-10 renal): 24.2 µM
- GI50 (U251 CNS): 1.71 µM
- TGI (U251 CNS): 3.17 µM
- GI50 (UACC-257 melanoma): 3.29 µM
- TGI (UACC-257 melanoma): 11.9 µM
- GI50 (UACC-62 melanoma): 1.81 µM
- TGI (UACC-62 melanoma): 3.62 µM
- GI50 (UO-31 renal): 1.07 µM
- TGI (UO-31 renal): 2.53 µM
